We go through 2 compounds from patent US10350334B2, “Catheter locking solution having antimicrobial and anticoagulation properties” (Becton, Dickinson and Company, priority 2009, dated 2019).

Molecules are shown by their SMILES. Values joined by “and” are separate entries in the source; they are usually repeats but may differ in a detail not shown here. Identical values can stand only once.

The subject of one experiment is sheep plasma. Nature of the experiment: Sheep's Plasma Clotting Assay (USP coagulation test). As to conditions: for Equivalence to Heparin: calculated from volumes giving 50% clotting versus heparin standard. It counts as biochemical. As to the method: In order to understand what the working concentration range could be for the anesthetics tested, a Sheep's Plasma Clotting Assay was performed. This test is based on the United States Pharmacopeia (USP) standard test for coagulation and is often used to understand heparin potency. […] Sheep plasma was thawed in a water bath set to 37° C. To facilitate thawing, the plasma in the bottle was inverted every 15 minutes. The plasma was thawed after about 45-60 minutes. The thawed sheep plasma was filtered through glass wool or filtered into a clean glass beaker or flask, to remove particulate matter and to activate it. About 70-80 mL of filtered sheep plasma was collected. Next, a set of test tubes were prepared (VWR Disposable 13×100-mm) in a 6×12 rack. Ten test tubes were needed for each test solution including ten test tubes for the heparin standard. […] For each test solution, every (10) test tube received different volumes of 0.9% NaCl. […] Next, the local anesthetics were added, namely, tetracaine at 30 mg/mL, dibucaine at 30 mg/mL, and bupivacaine at 38 mg/mL. Each of the ten test tubes received different volumes of test solutions, starting with 280 μL and increasing in volume by 20 μL until reaching a volume of 460 μL at the tenth tube. The total volume of saline and test solutions in each of the tubes was 800 μL. A standard solution, namely, USP heparin sodium standard, was also prepared in the same way, with the starting concentration of heparin being 5.6 U/mL. Next, 1 mL of sheep plasma for heparin assay (Bio-Supplies, Inc, P-SPR-1500) was pipetted into each tube, and the rack was gently shaken to ensure mixing. Two hundred μL of a 1% CaCl2 solution was placed into each tube. The total volume for each tube is 2 mL. Each tube was capped with a VWR Plug-type cap, and contents of each tube were inverted six times to ensure that the entire inner wall of each tube was wet. Tubes were incubated for 1 hour at room temperature. After the 1 hour time period, the extent of clotting in each tube was determined by gently shaking each individual test tube (tapping the end gently is acceptable) and then tilting the tube to observe a clot both vertically and horizontally. The degree to which each tube developed a clot was recorded using the following criteria (per the USP Standard) for the visual inspection of the tubes: • 0% Clotting=No apparent clot formed. • 25% Clotting=Small observable clot with mostly liquid. Clot is very mobile. • 50% Clotting=Plasma is completely clotted but mobile. • 75% Clotting=Clot is not mobile but liquid is still present. • 100% Clotting=Clot is not mobile and no liquid is present.
Because of the testing protocol, starting concentrations of anesthetics were diluted from the original formulation. Calculations can be made to compare the efficacy of these anesthetics to the standard anticoagulant heparin by calculating the point at which both standard and test samples yield 50% clotting. Using this calculation, the anesthetic concentration can be referenced back to a measure of U/mL of heparin equivalence.

The subject of experiment [1] is Staphylococcus epidermidis. Nature of the experiment: Planktonic cell tests. It counts as cell-based. The conditions noted are these: 12 mg/mL, 30 and 60 minutes. The protocol: In the planktonic cell tests, bupivacine was tested against non-adhering coagulase negative S. epidermidis, which is the bacterial species most prominent in the pathogenesis of CR-BSI. The planktonic cell experiments were performed by the following procedures. First, bacterial suspensions were prepared. Particularly, using BD BBL™ Qualiswab™, S. epidermidis was plated on a Tryptic Soy Broth (TSB) Petri Dish and grown overnight at 37° C. Using a sterile loop, a colony of S. epidermidis was picked up from the TSB Petri Dish and placed into a sterile flask containing 25 mL of sterile TSB media. The flask was then placed in a 37° C. shaking incubator and was shaken at 150 RPM overnight. The next day, 15 mL of the prepared bacterial suspension was placed into an autoclaved centrifuge tube and centrifuged at 10,000 RPM for 10 minutes using a Sorval Centrifuge. The bacteria from the bacterial suspension were rinsed in 0.9% saline by discarding the liquid media (after centrifugation step) and by resuspending the microbial pellet in 20 mL of sterile 0.9% saline. The bacteria were centrifuged and rinsed twice more, for a total of three saline rinses. […]
Bulk concentrations of the bupivacaine and/or vancomyacin (as noted in FIG. 1) were prepared in separate beakers and were filter sterilized. […] Samples were also assessed at time 0, in which there was no exposure to antimicrobials. […]

Take `CCCCNc1ccc(C(=O)OCCN(C)C)cc1.Cl` [Tetracaine, Tetracaine HCl]: the “volume at 50% coagulation” value in the experiment with sheep plasma (Rep 1) was 350 µL. Moreover, the “Equivalence to Heparin” value in the experiment on sheep plasma (per replicate, HCl) is 6.06 U/mL and 6.24 U/mL (2×); in the experiment with sheep plasma (per replicate, listed as tetracaine, HCl) it was 6.25 U/mL. Also, in the experiment with sheep plasma (final concentration in tube, 1 hour at room temperature, per replicate, HCl), the 50% clotting range is 5.4 mg/mL (2×) and 5.1-5.4 mg/mL.
With `CCCCN1CCCCC1C(=O)Nc1c(C)cccc1C.Cl` (stereo not drawn) [Bupivacaine, Bupivacaine HCl], the “antimicrobial effect against planktonic Staphylococcus epidermidis” value in experiment [1] is reported as “significant antimicrobial effect”. In the experiment on sheep plasma (at all concentrations tested), this compound registered a coagulation of 75%.
